Measured values as given in patent US9527858B2, “Compounds and compositions for use in phototherapy and in treatment of ocular neovascular disease and cancers” (Mallinckrodt LLC, priority 2009, dated 2016).

Assays:
AsPC-1 cells = assay: Comparative studies, orthotopic AsPC-1 pancreatic tumor in nude mice; format: in vivo; settings: subQ close to the pancreas, one injection per day for 10 days, total dose 20 mg/mouse; sacrificed at day 24; FIG. 4
Description: (§1) In these experiments nude mice weighing approximately 25 grams were used. First, the tail of the pancreas was exposed through an abdominal incision. Then 1×10^6 AsPC-1 cells were injected into the pancreas. The pancreas was replaced in the peritoneal cavity and the incision was closed. A 3-5 mm diameter tumor developed in 10 days.
MNTX was dissolved at 40 mg/mL in phosphate buffered saline (PBS) and then formulated to 100 uL (50 uL drug and 50 uL PBS) and injected subQ close to the pancreas. One injection per day was given for 10 days. The total dose was therefore 20 mg/mouse. For control and comparison, experiments on mice that were 1) not treated, 2) treated with light alone, 3) treated with gemcitibine alone, and 4) treated with Avastin alone using essentially the same procedure as described above were performed. The mice were sacrificed at day 24 and tumor weight was determined.
FIG. 4 provides local tumor burden experimental results for comparative studies involving administration of MNTX, Avastin and Gemcitabine anti-tumor agents. Tumor weight (mg) is shown for tumor conditions of: no treatment (NT); treatment with light alone (light alone); treatment with Gemcitabine alone (GEM); treatment with Avastin alone (Avastin) and treatment with MNTX (MNTX).

AsPC-1 pancreatic cancer = assay: Pancreatic tumor growth inhibition studies, orthotopic AsPC-1 pancreatic cancer; format: in vivo, nude mice; settings: I.P. 150 mg/kg daily for 13 days, 10 animals, sacrificed on day 24; control PBS; FIG. 6
Description: In these experiments, the effect of a purified stereoisomer of MNTX on AsPC-1 pancreatic cancer was evaluated.
as §1, with “Nude” for “In these experiments nude”, “The” for “First, the”
MNTX1 was formulated at 10 mg/mL in PBS. The 150 mg/kg dose was accomplished by a […] injection of a 10 mg/mL stock solution. Injections were done daily for 13 days, and the 10 animals were subsequently sacrificed on day 24. Treatments start after 10 days of AsPC1 pancreatic tumor cell orthotopic implantation. After two more weeks, the mice are sacrificed and tumor weight is measured for the evaluation of tumor growth inhibition effects. For control, four mice were injected according to the above schedule with PBS only. They were also sacrificed on day 24. FIG. 5 provides a schematic illustrating the experimental design of the pancreatic tumor growth inhibition studies. I.P. treatments (150 mg MNTX1/kg/each injection, 300 μl of 10 mg/ml for each injection totally for 13 times, animal number=10).
FIG. 6 provides experimental results for the pancreatic tumor growth inhibition studies showing the effects of MNTX1 on AsPC-1 pancreatic cancer. […]

[1] = Escalating dose study on mice; format: in vivo; settings: intraperitoneal injection
Description: The MNTX1 dose was established using an escalating dose study on mice. An intraperitoneal injection dose of 150 mg/kg was chosen. For a dosage of 400 mg/kg, 2 of 2 died, for a dosage of 200 mg/kg, 1 of 4 died; and for a dosage of 150 mg/kg (300 μl of 10 mg/ml), 3 of 3 survived. Therefore, a dose of 150 mg/kg (Intraperitoneal injection, I.P.) was used for each administration in the following orthotopic pancreatic tumor growth inhibition experiments.

endothelial cells = settings: cited from earlier work
VEGF expression = settings: cited from earlier work
[2] = cited from earlier work

## C[N@+]1(CC2CC2)CC[C@@]23c4c5ccc(O)c4CC1C2(O)CCC(=O)C3O5 (single isomer, unassigned; (-)) [MNTX, (−)-R-naltrexone methobromide]
AsPC-1 cells
  tumor weight measured at sacrifice: measurably superior to the control, Gemcitabine and Avastin conditions
AsPC-1 pancreatic cancer
  tumor weight measured at sacrifice: measurably superior to the control
[1]; dosage of 150 mg/kg (300 μl of 10 mg/ml)
  survived: 3 of 3
[1]; dosage of 200 mg/kg
  died: 1 of 4
[1]; dosage of 400 mg/kg
  died: 2 of 2
Endothelial cells
  synergy with Avastin to inhibit VEGF expression: synergistic
Endothelial cells; in endothelial cells
  synergy with 5-fluorouracil: synergistic

## COc1ccc2cc3[n+](cc2c1OC)CCc1cc2c(cc1-3)OCO2 [berberine]
VEGF expression
  inhibition of VEGF expression: some inhibition

## C[N@+]1(CC2CC2)CC[C@]23c4c5ccc(O)c4O[C@H]2C(=O)CC[C@@]3(O)[C@H]1C5 [methylnaltrexone, reference compound]
Endothelial cells
  potentiation of the cytotoxic effect of 5-fluorouracil: ~700 ×

## α-interferon
[2]; clinically tested for MD
  adverse effects: high rate of adverse effects
  clinical efficacy for MD: ineffective

B1: Lucentis: humanized anti-VEGF antibody fragment that inhibits VEGF activity by competitive binding (antibody, chains of the INN, looked up, V domains shown)
VH: EVQLVESGGGLVQPGGSLRLSCAASGYDFTHYGMNWVRQAPGKGLEWVGWINTYTGEPTYAADFKRRFTFSLDTSKSTAYLQMNSLRAEDTAVYYCAKYPYYYGTSHWYFDVWGQGTLVTVSS
VL: DIQLTQSPSSLSASVGDRVTITCSASQDISNYLNWYQQKPGKAPKVLIYFTSSLHSGVPSRFSGSGSGTDFTLTISSLQPEDFATYYCQQYSTVPWTFGQGTKVEIK
modifications: Fab
[2]; wet macular degeneration, after 12 months of treatment
  patients maintaining their baseline vision: About 95%
